Measured values published in PubChem BioAssay (NCI).
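These data come from cells grown in 96-well plates and exposed to compound for 48 hours at five concentrations. At the GI50, growth is halved. TGI is the concentration that stops growth completely.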

Tests used:
Experiment in all cases: NCI tumour cell line growth inhibition, 48 h
786-0 renal = tested on: 786-0 renal
A549 NSCLC = tested on: A549 NSCLC
ACHN renal = tested on: ACHN renal
BT-549 breast = tested on: BT-549 breast
CAKI-1 renal = tested on: CAKI-1 renal
CCRF-CEM leukemia = tested on: CCRF-CEM leukemia
COLO 205 colon = tested on: COLO 205 colon
DU-145 prostate = tested on: DU-145 prostate
EKVX NSCLC = tested on: EKVX NSCLC
HCC-2998 colon = tested on: HCC-2998 colon
HCT-116 colon = tested on: HCT-116 colon
HCT-15 colon = tested on: HCT-15 colon
HL-60(TB) leukemia = tested on: HL-60(TB) leukemia
HOP-62 NSCLC = tested on: HOP-62 NSCLC
HS 578T breast = tested on: HS 578T breast
HT29 colon = tested on: HT29 colon
IGROV1 ovarian = tested on: IGROV1 ovarian
K-562 leukemia = tested on: K-562 leukemia
KM12 colon = tested on: KM12 colon
LOX IMVI melanoma = tested on: LOX IMVI melanoma
M14 melanoma = tested on: M14 melanoma
MALME-3M melanoma = tested on: MALME-3M melanoma
MCF7 breast = tested on: MCF7 breast
MDA-MB-231 breast = tested on: MDA-MB-231 breast
MDA-MB-435 = tested on: MDA-MB-435
MOLT-4 leukemia = tested on: MOLT-4 leukemia
NCI-H226 lung = tested on: NCI-H226 lung
NCI-H23 lung = tested on: NCI-H23 lung
NCI-H460 lung = tested on: NCI-H460 lung
NCI-H522 lung = tested on: NCI-H522 lung
NCI/ADR-RES ovarian = tested on: NCI/ADR-RES ovarian
OVCAR-3 ovarian = tested on: OVCAR-3 ovarian
OVCAR-4 ovarian = tested on: OVCAR-4 ovarian
OVCAR-5 ovarian = tested on: OVCAR-5 ovarian
OVCAR-8 ovarian = tested on: OVCAR-8 ovarian
PC-3 prostate = tested on: PC-3 prostate
RXF 393 renal = tested on: RXF 393 renal
SF-268 CNS = tested on: SF-268 CNS
SF-295 CNS = tested on: SF-295 CNS
SF-539 CNS = tested on: SF-539 CNS
SK-MEL-2 melanoma = tested on: SK-MEL-2 melanoma
SK-MEL-28 melanoma = tested on: SK-MEL-28 melanoma
SK-OV-3 ovarian = tested on: SK-OV-3 ovarian
SN12C renal = tested on: SN12C renal
SNB-19 CNS = tested on: SNB-19 CNS
SNB-75 CNS = tested on: SNB-75 CNS
SW-620 colon = tested on: SW-620 colon
T-47D breast = tested on: T-47D breast
TK-10 renal = tested on: TK-10 renal
U251 CNS = tested on: U251 CNS
UACC-257 melanoma = tested on: UACC-257 melanoma
UACC-62 melanoma = tested on: UACC-62 melanoma
UO-31 renal = tested on: UO-31 renal
HOP-92 NSCLC = tested on: HOP-92 NSCLC
RPMI-8226 leukemia = tested on: RPMI-8226 leukemia
SK-MEL-5 melanoma = tested on: SK-MEL-5 melanoma

Structure (SMILES): Cc1cc(C(=O)CBr)c(CN2C(=O)c3ccccc3C2=O)c(=O)n1C
- TGI (786-0 renal): > 100 µM
- TGI (A549 NSCLC): 44.7 µM
- TGI (ACHN renal): 25.6 µM
- TGI (BT-549 breast): 32.7 µM
- TGI (CAKI-1 renal): 47.8 µM
- TGI (CCRF-CEM leukemia): 6.25 µM
- TGI (COLO 205 colon): 47.9 µM
- TGI (DU-145 prostate): 30.5 µM
- TGI (EKVX NSCLC): 14.5 µM
- TGI (HCC-2998 colon): 59.7 µM
- TGI (HCT-116 colon): > 100 µM
- TGI (HCT-15 colon): 34.9 µM
- TGI (HL-60(TB) leukemia): 25 µM
- TGI (HOP-62 NSCLC): > 100 µM
- TGI (HS 578T breast): 45.6 µM
- TGI (HT29 colon): > 100 µM
- TGI (IGROV1 ovarian): 64.2 µM
- TGI (K-562 leukemia): 20.6 µM
- TGI (KM12 colon): 40.1 µM
- TGI (LOX IMVI melanoma): 99.3 µM
- TGI (M14 melanoma): > 100 µM
- TGI (MALME-3M melanoma): 36.8 µM
- TGI (MCF7 breast): 56 µM
- TGI (MDA-MB-231 breast): 40.2 µM
- TGI (MDA-MB-435): 43.6 µM
- TGI (MOLT-4 leukemia): 5.57 µM
- TGI (NCI-H226 lung): > 100 µM
- TGI (NCI-H23 lung): > 100 µM
- TGI (NCI-H460 lung): 76.6 µM
- TGI (NCI-H522 lung): 37.4 µM
- TGI (NCI/ADR-RES ovarian): > 100 µM
- TGI (OVCAR-3 ovarian): 40.9 µM
- TGI (OVCAR-4 ovarian): > 100 µM
- TGI (OVCAR-5 ovarian): 52.6 µM
- TGI (OVCAR-8 ovarian): 41.1 µM
- TGI (PC-3 prostate): 35.5 µM
- TGI (RXF 393 renal): 33.7 µM
- TGI (SF-268 CNS): 54.9 µM
- TGI (SF-295 CNS): > 100 µM
- TGI (SF-539 CNS): 34.3 µM
- TGI (SK-MEL-2 melanoma): 61.7 µM
- TGI (SK-MEL-28 melanoma): 42.7 µM
- TGI (SK-OV-3 ovarian): > 100 µM
- TGI (SN12C renal): 36 µM
- TGI (SNB-19 CNS): 93.2 µM
- TGI (SNB-75 CNS): 56.5 µM
- TGI (SW-620 colon): 23 µM
- TGI (T-47D breast): 74.4 µM
- TGI (TK-10 renal): 25.3 µM
- TGI (U251 CNS): 38 µM
- TGI (UACC-257 melanoma): 33.5 µM
- TGI (UACC-62 melanoma): 34.7 µM
- TGI (UO-31 renal): 41.6 µM

Structure (SMILES): O=C(Cc1csc2nc(-c3ccc(Br)cc3)cn12)N/N=C/c1ccccc1
- GI50 (786-0 renal): 27.7 µM
- TGI (786-0 renal): > 100 µM
- GI50 (A549 NSCLC): 13.5 µM
- TGI (A549 NSCLC): 40.9 µM
- GI50 (ACHN renal): 10.8 µM
- TGI (ACHN renal): 25.6 µM
- GI50 (BT-549 breast): 13 µM
- TGI (BT-549 breast): 49.1 µM
- GI50 (CAKI-1 renal): 30.3 µM
- TGI (CAKI-1 renal): 82.2 µM
- GI50 (CCRF-CEM leukemia): 17.3 µM
- TGI (CCRF-CEM leukemia): > 100 µM
- GI50 (COLO 205 colon): 66.1 µM
- TGI (COLO 205 colon): > 100 µM
- GI50 (DU-145 prostate): 14.6 µM
- TGI (DU-145 prostate): 45.1 µM
- GI50 (EKVX NSCLC): 6.95 µM
- TGI (EKVX NSCLC): 52.5 µM
- GI50 (HCC-2998 colon): 13.2 µM
- TGI (HCC-2998 colon): 49.3 µM
- GI50 (HCT-116 colon): 9.32 µM
- TGI (HCT-116 colon): 21.2 µM
- GI50 (HCT-15 colon): 16.3 µM
- TGI (HCT-15 colon): > 100 µM
- GI50 (HOP-62 NSCLC): 15.3 µM
- TGI (HOP-62 NSCLC): 39.8 µM
- GI50 (HOP-92 NSCLC): 12.2 µM
- TGI (HOP-92 NSCLC): 37 µM
- GI50 (HS 578T breast): 16.4 µM
- TGI (HS 578T breast): 51.1 µM
- GI50 (HT29 colon): 44 µM
- TGI (HT29 colon): > 100 µM
- GI50 (IGROV1 ovarian): 11.2 µM
- TGI (IGROV1 ovarian): 32.7 µM
- GI50 (KM12 colon): 26.1 µM
- TGI (KM12 colon): > 100 µM
- GI50 (LOX IMVI melanoma): 12.2 µM
- TGI (LOX IMVI melanoma): 90.8 µM
- GI50 (M14 melanoma): 20.9 µM
- TGI (M14 melanoma): > 100 µM
- GI50 (MCF7 breast): 75.9 µM
- TGI (MCF7 breast): > 100 µM
- GI50 (MDA-MB-231 breast): 13 µM
- TGI (MDA-MB-231 breast): 58.2 µM
- GI50 (MDA-MB-435): 12.1 µM
- TGI (MDA-MB-435): 51.8 µM
- GI50 (MOLT-4 leukemia): 6.69 µM
- TGI (MOLT-4 leukemia): 37 µM
- GI50 (NCI-H23 lung): 12.6 µM
- TGI (NCI-H23 lung): 61.4 µM
- GI50 (NCI-H460 lung): 53 µM
- TGI (NCI-H460 lung): > 100 µM
- GI50 (NCI-H522 lung): 14.2 µM
- TGI (NCI-H522 lung): 60.8 µM
- GI50 (NCI/ADR-RES ovarian): 13.6 µM
- TGI (NCI/ADR-RES ovarian): 67.6 µM
- GI50 (OVCAR-3 ovarian): 24.1 µM
- TGI (OVCAR-3 ovarian): 46.3 µM
- GI50 (OVCAR-4 ovarian): 47.1 µM
- TGI (OVCAR-4 ovarian): > 100 µM
- GI50 (OVCAR-5 ovarian): 30.7 µM
- TGI (OVCAR-5 ovarian): > 100 µM
- GI50 (OVCAR-8 ovarian): 2.36 µM
- TGI (OVCAR-8 ovarian): 20.5 µM
- GI50 (PC-3 prostate): 20.2 µM
- TGI (PC-3 prostate): > 100 µM
- GI50 (RPMI-8226 leukemia): 7.38 µM
- TGI (RPMI-8226 leukemia): > 100 µM
- GI50 (RXF 393 renal): 14.5 µM
- TGI (RXF 393 renal): 38.8 µM
- GI50 (SF-268 CNS): > 100 µM
- TGI (SF-268 CNS): > 100 µM
- GI50 (SF-295 CNS): 12.1 µM
- TGI (SF-295 CNS): 37.4 µM
- GI50 (SF-539 CNS): 16.2 µM
- TGI (SF-539 CNS): 39.4 µM
- GI50 (SK-MEL-2 melanoma): 33 µM
- TGI (SK-MEL-2 melanoma): > 100 µM
- GI50 (SK-MEL-28 melanoma): > 100 µM
- TGI (SK-MEL-28 melanoma): > 100 µM
- GI50 (SK-MEL-5 melanoma): 5.66 µM
- TGI (SK-MEL-5 melanoma): 26.9 µM
- GI50 (SK-OV-3 ovarian): 65.7 µM
- TGI (SK-OV-3 ovarian): > 100 µM
- GI50 (SN12C renal): 13.1 µM
- TGI (SN12C renal): 39.9 µM
- GI50 (SNB-19 CNS): 44.1 µM
- TGI (SNB-19 CNS): > 100 µM
- GI50 (SNB-75 CNS): 31.8 µM
- TGI (SNB-75 CNS): 89.2 µM
- GI50 (SW-620 colon): 18.8 µM
- TGI (SW-620 colon): 62.8 µM
- GI50 (T-47D breast): 36.9 µM
- TGI (T-47D breast): > 100 µM
- GI50 (TK-10 renal): 14.1 µM
- TGI (TK-10 renal): 42.1 µM
- GI50 (U251 CNS): 12.7 µM
- TGI (U251 CNS): 32.1 µM
- GI50 (UACC-257 melanoma): 6.21 µM
- TGI (UACC-257 melanoma): 32 µM
- GI50 (UACC-62 melanoma): 11.6 µM
- TGI (UACC-62 melanoma): 28.2 µM
- GI50 (UO-31 renal): 58.2 µM
- TGI (UO-31 renal): > 100 µM
